Source: patent publication US20230036854A1, “HETEROCYCLIC SPIRO-COMPOUNDS AS AM2 RECEPTOR INHIBITORS” (THE UNIVERSITY OF SHEFFIELD, priority 2018, published 2023)

These molecules were tested against T1, AM2 receptor (1321N1 cells transfected with CALCRL+RAMP3) (Homo sapiens, UniProt O60896+Q16602) (assay: AM2 receptor inhibition, LANCE cAMP agonist-antagonist competition assay). Details: inhibition of AM induced cAMP activation, read-out: AM2 D2 protocol: pIC50 (converted).
T1 construct: host or cells: 1321N1 cells
T1 sequence (Q16602 23-461): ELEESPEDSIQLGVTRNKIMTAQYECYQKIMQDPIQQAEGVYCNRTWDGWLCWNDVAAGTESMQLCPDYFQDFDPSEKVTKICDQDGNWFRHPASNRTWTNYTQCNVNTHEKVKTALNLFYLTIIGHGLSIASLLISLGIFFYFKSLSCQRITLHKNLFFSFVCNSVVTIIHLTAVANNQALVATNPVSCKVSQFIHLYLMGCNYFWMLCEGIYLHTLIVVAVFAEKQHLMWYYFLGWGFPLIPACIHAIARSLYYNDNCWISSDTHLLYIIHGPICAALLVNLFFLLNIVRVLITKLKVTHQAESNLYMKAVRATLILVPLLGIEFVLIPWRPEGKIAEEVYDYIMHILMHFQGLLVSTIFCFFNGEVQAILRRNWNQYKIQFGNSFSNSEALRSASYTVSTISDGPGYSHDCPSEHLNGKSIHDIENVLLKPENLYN
T1 sequence (O60896 24-148): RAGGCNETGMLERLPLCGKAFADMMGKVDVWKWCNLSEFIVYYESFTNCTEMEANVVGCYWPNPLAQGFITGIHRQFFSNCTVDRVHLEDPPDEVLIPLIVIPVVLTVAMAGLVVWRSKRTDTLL
Type: cell-based
Experimental: Compounds were assessed for their ability to inhibit ligand-induced elevations of cAMP, using the Perkin Elmer LANCE cAMP assay using commercially-available cells expressing a specific receptor of interest using the following general procedure:
Compounds were prepared in dimethyl sulfoxide (DMSO—99.9% pure) (Sigma Aldrich, Cat #: D4540) added to powder stocks to produce a 20 mM solution (100% DMSO) that was sonicated at 37° C. for 10 minutes to fully dissolve the compounds. The 20 mM stocks were diluted further in DMSO to produce a 2 mM solution that was sonicated at 37° C. for 10 minutes. 2 mM stocks were dissolved in assay/stimulation buffer to produce a 400 μM solution that was sonicated at 37° C. for 10 minutes for all cAMP assays. All stocks were stored at −20° C. Then serial dilution (Dilution factor: 10) was performed to achieve the desire experimental concentrations.
Competition assays were performed according to the manufactures instructions using LANCE® TR-FRET cAMP assay kit (Perkin Elmer, Cat #: AD0264). Serial dilutions (3 μl/well) of the molecules were plated in a 384-well OptiPlate (Perkin Elmer, Cat #: 6007299) in duplicates. Appropriate controls (100% stimulation: Forskolin and 0% stimulation: Vehicle control) (6 μl/well) were included in each plate for data normalization. Following the compound addition, 6 μl of G-protein coupled receptor overexpressing cells/Alexa Fluor antibody solution (1:100 dilution) was added in each well at a desired density of 2500cells/well. The overexpressing cell lines were purchased from DiscoveRx, Birmingham, UK. After spinning the plate at 1000 rpm for 1 minute and vortexing briefly, the cells were pre-incubated with the compounds for 30 minutes at room temperature (covered). Then 3 μl of the equivalent peptide ligand (EC50 dose) was added to all the wells except vehicle and forskolin controls. The plate were then spun down at 1000 rpm for 1 minute and once finished they were vortexed briefly and covered. Cells were stimulated in the presence of the ligands for 15 minutes at room temperature. After stimulation 12 μl of detection mix (Europium-Chelate streptavidin/biotinylated cAMP tracer solution) was added to all wells and incubated for 60 minutes at room temperature. The plate was then read on the Enspire multimode Plate reader (Perkin Elmer), at; 320/340 nm excitation and 615/665 nm emission was recorded.
Assay/Stimulation Buffer (30 mL)—pH 7.4 • 28 mL Hank's Balanced salt solution (+MgCl2, +CaCl2)—(Thermo Fisher Cat #:14170112) • 150 μl HEPES (1M)—(Thermo Fisher Cat #:15630080) • 400 μl Stabilizer (DTPA) Purified BSA (7.5%)—(Perkin Elmer, Cat #: CR84-100)
The ability of a compound to inhibit the AM induced cAMP activation in AM2 receptor-expressing cells (1321N1 cells transfected with CALCRL+RAMP3, sourced from DiscoverX catalogue number 95-0169C6) was assessed using the protocol above.
CNCc1ccccc1CN(CC(=O)Nc1ccc2c(c1)C[C@@]1(C2)C(=O)Nc2ncccc21)C(=O)C1(C)CCN(C(=O)c2cccc(N)n2)CC1 [Example 10, (R)-1-(6-Aminopicolinoyl)-4-methyl-N-(2-((methylamino)methyl)benzyl)-N-(2-oxo-2-((2′-oxo-1,1′,2′,3-tetrahydrospiro[indene-2,3′-pyrrolo[2,3-b]pyridin]-5-yl)amino)ethyl)piperidine-4-carboxamide] showed an IC50 of 8.91 nM.
With CNCc1ccccc1CN(CC(=O)Nc1ccc2c(c1)C[C@@]1(C2)C(=O)Nc2ncccc21)C(=O)C1(C)CCN(C(=O)C[C@H]2CCNC2)CC1 [Example 11, 4-Methyl-N-(2-((methylamino)methyl)benzyl)-N-(2-oxo-2-(((R)-2′-oxo-1,1′,2′,3-tetrahydrospiro[indene-2,3′-pyrrolo[2,3-b]pyridin]-5-yl)amino)ethyl)-1-(2-((R)-pyrrolidin-3-yl)acetyl)piperidine-4-carboxamide] the IC50 was 6.46 nM.
In the case of CNCc1ccccc1CN(CC(=O)Nc1ccc2c(c1)C[C@@]1(C2)C(=O)Nc2ncccc21)C(=O)C1(C)CCN(C(=O)C2CCN(C(C)=O)CC2)CC1 [Example 12, (R)-1-(1-Acetylpiperidine-4-carbonyl)-4-methyl-N-(2-((methylamino)methyl)benzyl)-N-(2-oxo-2-((2′-oxo-1,1′,2′,3-tetrahydrospiro[indene-2,3′-pyrrolo[2,3-b]pyridin]-5-yl)amino)ethyl)piperidine-4-carboxamide], the IC50 is reported as 9.12 nM.
For CNCc1ccccc1CN(CC(=O)Nc1ccc2c(c1)C[C@@]1(C2)C(=O)Nc2ncccc21)C(=O)C1(C)CCN(C(=O)Cc2ccncc2)CC1 [Example 13, (R)-4-Methyl-N-(2-((methylamino)methyl)benzyl)-N-(2-oxo-2-((2′-oxo-1,1′,2′,3-tetrahydrospiro[indene-2,3′-pyrrolo[2,3-b]pyridin]-5-yl)amino)ethyl)-1-(2-(pyridin-4-yl)acetyl)piperidine-4-carboxamide], the IC50 was 15.5 nM.
In the case of CNCc1ccccc1CN(CC(=O)Nc1ccc2c(c1)CC1(C2)C(=O)Nc2ncccc21)C(=O)C1(C)CCN(C(=O)c2cccnc2)CC1 (centres unmarked) [Example 14, 4-Methyl-N-(2-((methylamino)methyl)benzyl)-1-nicotinoyl-N-(2-oxo-2-((2′-oxo-1,1′,2′,3-tetrahydrospiro[indene-2,3′-pyrrolo[2,3-b]pyridin]-5-yl)amino)ethyl)piperidine-4-carboxamide], the IC50 is reported as 2 nM.
CNCc1ccccc1CN(CC(=O)Nc1ccc2c(c1)CC1(C2)C(=O)Nc2ncccc21)C(=O)C1(C)CCN(C(=O)c2ccccn2)CC1 (centres unmarked) [Example 15, 4-Methyl-N-(2-((methylamino)methyl)benzyl)-N-(2-oxo-2-((2′-oxo-1,1′,2′,3-tetrahydrospiro[indene-2,3′-pyrrolo[2,3-b]pyridin]-5-yl)amino)ethyl)-1-picolinoylpiperidine-4-carboxamide] showed an IC50 of 0.759 nM.
With CNCc1ccccc1CN(CC(=O)Nc1ccc2c(c1)C[C@@]1(C2)C(=O)Nc2ncccc21)C(=O)C1(C)CCN(C(=O)C(C)C)CC1 [Example 16, (R)-1-Isobutyryl-4-methyl-N-(2-((methylamino)methyl)benzyl)-N-(2-oxo-2-((2′-oxo-1,1′,2′,3-tetrahydrospiro[indene-2,3′-pyrrolo[2,3-b]pyridin]-5-yl)amino)ethyl)piperidine-4-carboxamide] the IC50 was 3.24 nM.
Molecule CNCc1ccccc1CN(CC(=O)Nc1ccc2c(c1)C[C@@]1(C2)C(=O)Nc2ncccc21)C(=O)C1(C)CCN(C(=O)C(F)F)CC1 [Example 17, (R)-1-(2,2-Difluoroacetyl)-4-methyl-N-(2-((methylamino)methyl)benzyl)-N-(2-oxo-2-((2′-oxo-1,1′,2′,3-tetrahydrospiro[indene-2,3′-pyrrolo[2,3-b]pyridin]-5-yl)amino)ethyl)piperidine-4-carboxamide] has an IC50 of 8.32 nM.
In the case of CNCc1ccccc1CN(CC(=O)Nc1ccc2c(c1)C[C@@]1(C2)C(=O)Nc2ncccc21)C(=O)C1(C)CCN(C(=O)c2ncccn2)CC1 [Example 18, (R)-4-Methyl-N-(2-((methylamino)methyl)benzyl)-N-(2-oxo-2-((2′-oxo-1,1′,2′,3-tetrahydrospiro[indene-2,3′-pyrrolo[2,3-b]pyridin]-5-yl)amino)ethyl)-1-(pyrimidine-2-carbonyl)piperidine-4-carboxamide], the IC50 is reported as 7.41 nM.
With CNCc1ccccc1CN(CC(=O)Nc1ccc2c(c1)C[C@@]1(C2)C(=O)Nc2ncccc21)C(=O)C1(C)CCN(C(=O)c2cnccn2)CC1 [Example 19, (R)-4-Methyl-N-(2-((methylamino)methyl)benzyl)-N-(2-oxo-2-((2′-oxo-1,1′,2′,3-tetrahydrospiro[indene-2,3′-pyrrolo[2,3-b]pyridin]-5-yl)amino)ethyl)-1-(pyrazine-2-carbonyl)piperidine-4-carboxamide] the IC50 was 4.47 nM.
For CNCc1ccccc1CN(CC(=O)Nc1ccc2c(c1)CC1(C2)C(=O)Nc2ncccc21)C(=O)C1(C)CCN(C(=O)C2CC2)CC1 (centres unmarked) [Example 20, 1-(Cyclopropanecarbonyl)-4-methyl-N-(2-((methylamino)methyl)benzyl)-N-(2-oxo-2-((2′-oxo-1,1′,2′,3-tetrahydrospiro[indene-2,3′-pyrrolo[2,3-b]pyridin]-5-yl)amino)ethyl)piperidine-4-carboxamide], the IC50 was 4.27 nM.
In the case of CNCc1ccccc1CN(CC(=O)Nc1ccc2c(c1)CC1(C2)C(=O)Nc2ncccc21)C(=O)C1(C)CCN(C(=O)COC)CC1 (centres unmarked) [Example 21, 1-(2-Methoxyacetyl)-4-methyl-N-(2-((methylamino)methyl)benzyl)-N-(2-oxo-2-((2′-oxo-1,1′,2′,3-tetrahydrospiro[indene-2,3′-pyrrolo[2,3-b]pyridin]-5-yl)amino)ethyl)piperidine-4-carboxamide], the IC50 is reported as 1.51 nM.
CNCc1ccccc1CN(CC(=O)Nc1ccc2c(c1)CC1(C2)C(=O)Nc2ncccc21)C(=O)C1(C)CCN(C(=O)CN)CC1 (centres unmarked) [Example 22, 1-(2-Aminoacetyl)-4-methyl-N-(2-((methylamino)methyl)benzyl)-N-(2-oxo-2-((2′-oxo-1,1′,2′,3-tetrahydrospiro[indene-2,3′-pyrrolo[2,3-b]pyridin]-5-yl)amino)ethyl)piperidine-4-carboxamide] showed an IC50 of 0.631 nM.
CNCc1ccccc1CN(CC(=O)Nc1ccc2c(c1)C[C@@]1(C2)C(=O)Nc2ncccc21)C(=O)C1(C)CCN(C(=O)C(C)NC)CC1 (stereo partly drawn) [Example 23, 4-Methyl-N-(2-((methylamino)methyl)benzyl)-1-(2-(methylamino)propanoyl)-N-(2-oxo-2-(((R)-2′-oxo-1,1′,2′,3-tetrahydrospiro[indene-2,3′-pyrrolo[2,3-b]pyridin]-5-yl)amino)ethyl)piperidine-4-carboxamide] was tested, and the IC50 was 1.38 nM.
CNCc1ccccc1CN(CC(=O)Nc1ccc2c(c1)C[C@@]1(C2)C(=O)Nc2ncccc21)C(=O)C1(C)CCN(C(=O)c2ccncn2)CC1 [Example 24, (R)-4-Methyl-N-(2-((methylamino)methyl)benzyl)-N-(2-oxo-2-((2′-oxo-1,1′,2′,3-tetrahydrospiro[indene-2,3′-pyrrolo[2,3-b]pyridin]-5-yl)amino)ethyl)-1-(pyrimidine-4-carbonyl) piperidine-4-carboxamide] gave an IC50 of 2.95 nM.
Work on CNCc1ccccc1CN(CC(=O)Nc1ccc2c(c1)C[C@@]1(C2)C(=O)Nc2ncccc21)C(=O)C1(C)CCN(C(=O)c2ccn[nH]2)CC1 [Example 25, (R)-4-Methyl-N-(2-((methylamino)methyl)benzyl)-N-(2-oxo-2-((2′-oxo-1,1′,2′,3-tetrahydrospiro[indene-2,3′-pyrrolo[2,3-b]pyridin]-5-yl)amino)ethyl)-1-(1H-pyrazole-5-carbonyl) piperidine-4-carboxamide] yielded an IC50 of 2.14 nM.
Work on CNCc1ccccc1CN(CC(=O)Nc1ccc2c(c1)C[C@@]1(C2)C(=O)Nc2ncccc21)C(=O)C1(C)CCN(C(=O)c2cccnn2)CC1 [Example 26, (R)-4-Methyl-N-(2-((methylamino)methyl)benzyl)-N-(2-oxo-2-((2′-oxo-1,1′,2′,3-tetrahydrospiro[indene-2,3′-pyrrolo[2,3-b]pyridin]-5-yl)amino)ethyl)-1-(pyridazine-3-carbonyl) piperidine-4-carboxamide] yielded an IC50 of 4.57 nM.
